Test results reported in patent US20060246117A1, “Animal husbandry method for administering a vitamin E derivative and formulation” (ADISSEO FRANCE S.A.S., priority 2003, published 2006).

Legend:
[1] = in vivo
Description: (§1) R1: Basal diet+20 IU/kg standard Vit E (in the form of dl-α-tocopheryl acetate)
R2: Control+150 IU/kg standard Vit E
(§2) Thirty crossbred weanling piglets (8.0 kg live weight) were divided into three groups (R1, R2, R3), kept individually and distributed according to a completely randomized block design. The piglets were fed ad libitum for 14 days on a corn-wheat based diet (Table 11). The diet was supplemented with either 20 IU/kg (R1) or 150 IU/kg (R2) standard DL-α-tocopheryl acetate. […] On day 15 of the experiment the animals were slaughtered and their liver dissected, immediately frozen under liquid nitrogen and ground to powder. Muscle samples (muscularis glutaeus maximus) of about 9 cm2 were obtained from the left hind leg and frozen immediately. The vitamin E content of the samples was determined by HPLC (Castan et al. 2005) and data were statistically analysed using one-way ANOVA.

[2] = target: T1, cholesterol ester hydrolase (Homo sapiens, UniProt P19835); experiment: Tac hydrolysis in M40 micelle above CaCo-2 cells, 2 hours (Example 8.2); format: in vitro ADME; settings: Tac 67 nmol/cm^2; Tac/emulsifier ratio 100/1; 2 hours at 37° C.
T1 sequence (P19835 21-753): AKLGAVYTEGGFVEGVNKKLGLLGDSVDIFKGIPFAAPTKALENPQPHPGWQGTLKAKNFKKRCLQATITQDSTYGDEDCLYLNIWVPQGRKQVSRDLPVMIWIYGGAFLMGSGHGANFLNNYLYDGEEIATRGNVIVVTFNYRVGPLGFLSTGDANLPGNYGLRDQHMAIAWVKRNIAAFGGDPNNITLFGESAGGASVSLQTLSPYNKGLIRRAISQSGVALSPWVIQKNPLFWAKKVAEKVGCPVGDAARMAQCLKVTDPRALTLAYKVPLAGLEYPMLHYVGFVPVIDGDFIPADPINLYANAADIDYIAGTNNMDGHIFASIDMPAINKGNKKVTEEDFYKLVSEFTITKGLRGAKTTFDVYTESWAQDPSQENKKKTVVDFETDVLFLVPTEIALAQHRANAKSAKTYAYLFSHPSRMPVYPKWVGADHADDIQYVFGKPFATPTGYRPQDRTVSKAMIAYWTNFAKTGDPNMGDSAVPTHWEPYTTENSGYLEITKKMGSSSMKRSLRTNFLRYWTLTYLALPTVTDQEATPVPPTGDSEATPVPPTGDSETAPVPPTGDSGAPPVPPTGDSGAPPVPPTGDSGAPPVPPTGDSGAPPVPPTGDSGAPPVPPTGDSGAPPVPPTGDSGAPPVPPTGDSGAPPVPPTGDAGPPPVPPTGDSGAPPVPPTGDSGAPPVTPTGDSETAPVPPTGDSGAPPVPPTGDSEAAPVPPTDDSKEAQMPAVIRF
Experimental: The conditions under which the tests are carried out are as follows: • Cell model: CaCo-2 cells • Area of the wells: 4.2 cm^2 • Quantity of Tac: 67 nmol/cm^2 • Solution employed: M40 micelle in accordance with Mathias et al.
Treatments: • A: Without emulsifier • B: With emulsifier (SMP+SMO mixture; ratio 1/1), Tac/emulsifier ratio 100/1
Period of incubation: 2 hours at 37° C.
Analyses: Analysis of Tac in the medium above the cells for the purpose of calculating the degree of hydrolysis.

[3] = Release of Tac from its silica support (Example 4); format: physicochemical; settings: 2.5 hours, 38° C., Tac on silica
Experimental: The present example tests the effect of an emulsifier according to the invention, i.e. SMO (sorbitan monooleate), on the release of Tac which is attached to silica. To this end, use is made of Tac on a silica support, in a ratio by weight of 1:1, for the assay without emulsifier, and of Tac+emulsifier (SMO) on silica in a ratio by weight of 50:5:45.
10 g of Tac (where appropriate +SMO) on the above silica (that is a final concentration of Tac of 10 mM) are incubated for 2.5 hours, while stirring and at 38° C., under different pH conditions in the following solutions:
either 35 mM phosphate, pH 6.5, 0.15 mM NaCl
or 35 mM HCl/glycine, pH 2.5

[4] = Vitamin E levels in egg yolks of laying hens (Example 11); format: in vivo, ISA brown laying hens; settings: supplementation level of 100 mg/kg feed
Experimental: Forty ISA brown laying hens, 23 weeks of age, were equally divided into 4 groups and individually housed in cages. The animals received the meal experimental diets (R1-R4) ad libitum for 21 days. The eggs layed on D20 to 21 were collected, weighed and stored at +4° C. The vitamin E levels in the egg yolk were determined by HPLC according to the method by […] et al. (2005). Data were analysed using the ANOVA procedure of Statview.

[5] = Plasma and liver vitamin E levels of broilers fed graded doses (Example 10); format: in vivo, Ross male broiler chicks; settings: d35, diets fed d15 to d34
Description: R3: Control+120 IU/kg standard Vit E
R4: Control+200 IU/kg standard Vit E
Three hundred Ross male broiler chicks were divided into 6 groups and housed in 6 pens. From d0 to d14, all animals were fed the same, vitamin E free, basal diet.
The animals received the pelleted experimental diets (R1-R6) ad libitum from d15 to d34. On d35, 15 broilers per treatment, which were closest to the mean body weight, were selected. Plasma samples were collected by intracardiac puncture. Birds were then slaughtered by pentobarbital injection. Livers were dissected, deep frozen in liquid nitrogen and immediately ground. The vitamin E levels in plasma or livers were determined by HPLC according to the method by Castan et al. (2005). Data were analysed using the ANOVA procedure of Statview.

CaCo-2 = experiment: Absorption of Tol and Tac by CaCo-2 cells in M20 medium, one hour at 37° C., non-ethoxylated versus ethoxylated emulsifiers (Example 3); format: in vitro ADME
Experimental: Absorption assays are carried out, using the same cell line as that described above, by incubating the cells for 3 hours in a physiological medium which is similar to the intestinal medium and which contains cholesterol ester hydrolase (CEH), the pancreatic enzyme which hydrolyzes the Tac into vitamin E in the animal, and sodium taurocholate, which represents the bile salts. This medium comes in the form of an oil-in-water emulsion, i.e. in the form of micelles, and is commercially identified under the reference M20. The Tac, and, where appropriate, the emulsifier being tested, are placed in this medium. The concentration, in vitamin E equivalent, which is introduced into each well in the form of Tac is 156 μM.
The general experimental conditions of the protocol described in Example 2, 2.1) are identical apart from the fact that the area of the wells and the concentration of Tac introduced into the M20 medium differ. The area of the wells is 6.5 cm^2 and the concentration of Tac is 23.7 μM/cm^2.
Four experiments are carried out, with each being repeated three times, using a protocol which comprises one hour of incubation at 37° C., as follows: • 1) M20 on its own, at the rate of 2 mM; the Tac is therefore on its own without emulsifier; • 2) M20+SML (sorbitan monolaurate) emulsifier • 3) M20+SMP (sorbitan monopalmitate) emulsifier • 4) M20+ESML (ethoxylated sorbitan monolaurate)
In the case of each of the assays 2), 3) and 4), the ratio by weight of the added emulsifier to the Tac (in vitamin E equivalent) is 1:6.9.
Four experiments are carried out, with each being repeated three times, using a protocol which comprises one hour of incubation at 37° C., as follows: • 1) M20 on its own; the Tac is therefore on its own without emulsifier; • 2) M20+SML (sorbitan monolaurate) emulsifier • 3) M20+SMP (sorbitan monopalmitate) emulsifier • 4) M20+MOSE (ethoxylated sorbitan monooleate)

[6] = system: cholesterol ester hydrolase (pancreatin); experiment: Combined release of Tac from silica support and hydrolysis of the released Tac to Tol (Example 6); format: in vitro ADME
Experimental: The present example tests the effect of an emulsifier according to the invention, i.e. SMO (sorbitan monooleate). For this purpose, use is made of Tac on a silica support, in a ratio by weight of 1:1, for the assay without emulsifier, and of Tac+emulsifier (SMO) on silica, in a ratio by weight of 50:5:45.
8 mg of Tac (where appropriate +SMO) on the above silica (that is a final concentration of Tac of 16.9 μM) are incubated for 3 hours, while stirring and at 37° C., in the following solutions:
35 mM phosphate, pH 6.5, […] NaCl, pancreatin (2 mg) and bile salts (20 mM).
Before incubating, and after 1 hour and 3 hours, respectively, of incubation under the aforementioned conditions, the concentration of vitamin E in the solution is measured in comparison with the initial quantity of Tac.

[7] = Plasma vitamin E level of piglets after intraduodenal infusion (Example 9); format: in vivo; settings: 800 IU single bolus intraduodenally; pooled samples 4-24 h postprandially
Description: In order to exclude gastric influences or impacts of the carrier, the emulsifier of the invention was intraduodenally infused in liquid form (oil).
Three weaning piglets (initial BW 12 kg) were surgically fitted with a silicon catheter in the jugular vein as well as with a silicon cannula in the proximal duodenum according to the procedure described by Thaela et al. (1995).
A standard weaner diet without vitamin E supplementation was fed to the piglets. The animals were fed a daily feed allowance corresponding to 2.0×W^0.75, distributed twice in equal meals (08.00 h and 16.00). The animals were adapted for 7d to the basal diet. […] 2 treatments×3 piglets×2 repetitions (cross-over)
R1: 800 IU Vitamin E standard oil, infused as a single bolus intraduodenally
Blood samples were taken 4, 8, 12, 16, 20 and 24 h postprandially, plasma was obtained and samples were pooled. After the experiment, the animals were newly adapted to the basal diet for 7d before the 2nd repetition was done accordingly. The vitamin E content in the plasma was determined by HPLC according to the method by Castan et al. (2005). Data were analysed using the ANOVA procedure of Statview.

[8] = oral route, animals; cited from earlier work
[9] = Vitamin E levels in liver and muscle of piglets (Example 13); settings: points at 20 IU/kg and 150 IU/kg
Description: as §1
R2: Control+150 IU/kg standard Vit E
as §2

[10] = Digestibility of vitamin E from faecal excretion in caecectomized cocks (Example 7); format: in vivo; settings: treatment 1: Tac 40 mg, no emulsifier
Experimental: Two series of tests were carried out on caecectomized cocks. The first series comprised 32 cocks while the second comprised 51 cocks. They were fed, by “wet gavage”, with a feed which incorporated Tac (vitamin E acetate) or Tac combined, in different proportions, with one or two alimentary emulsifiers according to the invention. The Tac or the combined Tac was formulated in gelatin capsules, which were obtained by using a pipette to deposit a predetermined quantity of Tac or combined Tac in a capsule half shell and then closing the capsule with the other half shell. 48 hours after the ingestion of feed from a bowl, the faeces are collected and the excretion of the vitamin in this material is determined. To this end, the vitamin E is extracted with a vitamin E solvent, for example hexane, and the quantity extracted is then determined by HPLC chromatography. The proportion of vitamin E which has been digested is deduced from the proportion which has been excreted.

[11] = Example 3.2, emulsifier:Tac 1:6.9
[12] = Example 3.3, emulsifier:Tac 1:6.9

CC(=O)Oc1c(C)c(C)c2c(c1C)CC[C@@](C)(CCC[C@H](C)CCC[C@H](C)CCCC(C)C)O2 [Tac, d,l-α-tocopheryl acetate]
increase of vitamin E content in liver as compared to piglets fed 20 IU/kg DL-α-tocopheryl acetate [1]: 51% | increase of vitamin E content in muscle as compared to piglets fed 20 IU/kg DL-α-tocopheryl acetate [1]: 35% | Tac hydrolysis [2]: 9.7% | % of vitamin E released at pH 2.5 ([3]; 35 mM HCl/glycine, pH 2.5): 46.5% | % of vitamin E released at pH 6.5 ([3]; 35 mM phosphate, pH 6.5): 59.6% | total vitamin E content of the yolk [4]: 4.07 mg | slope of the curve of liver vitamin E level versus dietary dose ([5]; liver): 0.1896 | slope of the curve of plasma vitamin E level versus dietary dose ([5]; plasma): 0.1211 | Absorption, Tac (CaCo-2; [11]): 1.68 nmol/cm^2 | Absorption, Tol (CaCo-2; [11]): 1.77 nmol/cm^2 | Absorption, Vitamin E (Tol + Tac in vitamin E equivalent) (CaCo-2; [11]): 3.45 nmol/cm^2 | Absorption, Tac (CaCo-2; [12]): 2.31 nmol/cm^2 | Absorption, Tol (CaCo-2; [12]): 1.29 nmol/cm^2 | Absorption, Vitamin E (Tol + Tac in vitamin E equivalent) (CaCo-2; [12]): 3.60 nmol/cm^2 | concentration of vitamin E in the solution in comparison with the initial quantity of Tac ([6]; time 0 minutes (before incubating)): 1.21 | concentration of vitamin E in the solution in comparison with the initial quantity of Tac ([6]; time 60 minutes): 1.30 | concentration of vitamin E in the solution in comparison with the initial quantity of Tac ([6]; time 180 minutes): 5.25 | overall plasma vitamin E level [7]: 5.72 nmol/mL | bioavailability [8]: ≤ 40% | slope of the regression curve for vitamin E contents in livers [9]: 1.89 | slope of the regression curve for vitamin E contents in muscle samples [9]: 0.89 | Mean digestibility ([10]; first series, faeces at 48 hours): 24.8% | Mean digestibility ([10]; second series): 26.1%

Cc1c(C)c2c(c(C)c1O)CC[C@@](C)(CCC[C@H](C)CCC[C@H](C)CCCC(C)C)O2 [vitamin E, d-α-tocopherol]
bioavailability [8]: ≤ 50%
